Article PMC8286840, “Identifying SARS-CoV-2 antiviral compounds by screening for small molecule inhibitors of Nsp3 papain-like protease” (Biochemical Journal, 2021)
Where a name gives a salt, the structure may show the parent alone. Read-outs that look alike come from different tables or passages of the source.

Legend:
[1] = biological target: T1, SARS-CoV-2 PLpro (nsp3 1564–1878) (Severe acute respiratory syndrome coronavirus 2, UniProt P0DTD1); assay: biochemical; design: FRET-quenched peptide (Pro3) cleavage by PLpro, 10 min pre-incubation, slope over 20 min, normalised to no-compound control; details: low concentration screen, read-out: % of control remaining
[2] = biological target: T1, SARS-CoV-2 PLpro (nsp3 1564–1878); assay: biochemical; design: FRET-quenched peptide (Pro3) cleavage by PLpro, 10 min pre-incubation, slope over 20 min, normalised to no-compound control; details: high concentration screen, read-out: % of control remaining

`C[C@H]1c2cccc(O)c2C(=O)C2=C(O)[C@]3(O)C(=O)C(C(N)=O)=C(O)[C@@H](N(C)C)[C@@H]3[C@@H](O)[C@@H]21` [Doxycycline hydrochloride] was tested, and the remaining activity at 1.25 µM ([1]; Well no.=396) was 105% and the remaining activity at 3.75 µM ([2]; Well no.=396) was 108%.
With `C[C@H]1c2cccc(O)c2C(=O)C2=C(O)[C@]3(O)C(=O)C(C(N)=O)=C(O)[C@@H](N(C)C)[C@@H]3[C@@H](O)[C@@H]21` [Doxycycline] the remaining activity at 1.25 µM ([1]; Well no.=2022) was 106% and the remaining activity at 3.75 µM ([2]; Well no.=2022) was 107%.
Molecule `CN(C)CCOC(C)(c1ccccc1)c1ccccn1` (stereo not drawn) [Doxylamine (succinate)] has a remaining activity at 1.25 µM ([1]; Well no.=6421) of 99.2% and a remaining activity at 3.75 µM ([2]; Well no.=6421) of 102%.
Molecule `CN(C)CCOC(C)(c1ccccc1)c1ccccn1` (stereo not drawn) [Doxylamine succinate] has a remaining activity at 1.25 µM ([1]; Well no.=497) of 102% and a remaining activity at 3.75 µM ([2]; Well no.=497) of 104%.
`CN(C)C(=S)NN=C(c1ccccn1)c1ccccn1` [Dp44mT] gave a remaining activity at 1.25 µM ([1]; Well no.=5584) of 99.1% and a remaining activity at 3.75 µM ([2]; Well no.=5584) of 101%.
`CCCCc1oc2ccc(NS(C)(=O)=O)cc2c1C(=O)c1ccc(OCCCN(CCCC)CCCC)cc1` [Dronedarone] was tested, and the remaining activity at 1.25 µM ([1]; Well no.=8285) was 100% and the remaining activity at 3.75 µM ([2]; Well no.=8285) was 94.4%.
With `O=C(CCCN1CC=C(n2c(=O)[nH]c3ccccc32)CC1)c1ccc(F)cc1` [Droperidol] the remaining activity at 1.25 µM ([1]; Well no.=493) was 105%, the remaining activity at 1.25 µM ([1]; Well no.=7382) was 97.2% and the remaining activity at 3.75 µM ([2]; Well no.=493) was 106%. For the same molecule, the remaining activity at 3.75 µM ([2]; Well no.=7382) was 101%.
For `C[C@]12CCC(=O)C=C1[C@@H]1C[C@@H]1[C@H]1[C@@H]3[C@@H]4C[C@@H]4[C@@]4(CCC(=O)O4)[C@@]3(C)CC[C@@H]12` [Drospirenone], the remaining activity at 1.25 µM ([1]; Well no.=5235) was 99.4% and the remaining activity at 3.75 µM ([2]; Well no.=5235) was 102%.
`Cc1cc(Cl)ccc1OCCCC(=O)NO` [Droxinostat] showed a remaining activity at 1.25 µM ([1]; Well no.=5239) of 101% and a remaining activity at 3.75 µM ([2]; Well no.=5239) of 96.2%.
For `CS(=O)(=O)c1ccc(-c2cc(Br)sc2-c2ccc(F)cc2)cc1` [DuP 697], the remaining activity at 1.25 µM ([1]; Well no.=499) was 105% and the remaining activity at 3.75 µM ([2]; Well no.=499) was 107%.
For `COc1c2c(nc3ccccc13)OC(C(C)(O)CO)C2` (stereo not drawn) [Dubinidine], the remaining activity at 1.25 µM ([1]; Well no.=486) was 106%, the remaining activity at 1.25 µM ([1]; Well no.=3115) was 102% and the remaining activity at 3.75 µM ([2]; Well no.=486) was 105%. The remaining activity at 3.75 µM ([2]; Well no.=3115) was 104%.
Molecule `OC[C@@H](O)[C@H](O)[C@H](O)[C@@H](O)CO` [Dulcite] has a remaining activity at 1.25 µM ([1]; Well no.=6883) of 99.2% and a remaining activity at 3.75 µM ([2]; Well no.=6883) of 94.4%.
`C[C@]12C=CC(=O)N[C@@H]1CC[C@@H]1[C@@H]2CC[C@]2(C)[C@@H](C(=O)Nc3cc(C(F)(F)F)ccc3C(F)(F)F)CC[C@@H]12` [Dutasteride] showed a remaining activity at 1.25 µM ([1]; Well no.=5107) of 106% and a remaining activity at 3.75 µM ([2]; Well no.=5107) of 107%.
In the case of `CCCCOc1ccc(C(=O)CCN2CCCCC2)cc1` [Dyclonine (hydrochloride)], the remaining activity at 1.25 µM ([1]; Well no.=8318) was 95.9% and the remaining activity at 3.75 µM ([2]; Well no.=8318) was 94.4%.
`CCCCOc1ccc(C(=O)CCN2CCCCC2)cc1` [Dyclonine HCl] was tested, and the remaining activity at 1.25 µM ([1]; Well no.=5050) was 103% and the remaining activity at 3.75 µM ([2]; Well no.=5050) was 101%.
In the case of `Cn1c(=O)c2c(ncn2CC(O)CO)n(C)c1=O` (stereo not drawn) [Dyphylline], the remaining activity at 1.25 µM ([1]; Well no.=8092) was 93.8% and the remaining activity at 3.75 µM ([2]; Well no.=8092) was 95.3%.
`COc1cc2c3cc1Oc1c(OC)c(OC)cc4c1[C@@H](Cc1ccc(OC(=O)c5ccc([N+](=O)[O-])cc5)c(c1)Oc1ccc(cc1)C[C@@H]3N(C)CC2)N(C)CC4` [E6 Berbamine] gave a remaining activity at 1.25 µM ([1]; Well no.=3237) of 97.5% and a remaining activity at 3.75 µM ([2]; Well no.=3237) of 95%.
For `C[C@H](NC(=O)c1c(C(F)F)nn(C)c1Oc1cccc(C(F)(F)F)c1)c1ccc(C(=O)O)cc1` [E7046], the remaining activity at 1.25 µM ([1]; Well no.=8441) was 94.7% and the remaining activity at 3.75 µM ([2]; Well no.=8441) was 94.6%.
For `COc1cc2nccc(Oc3ccc(NC(=O)NC4CC4)c(Cl)c3)c2cc1C(N)=O` [E7080], the remaining activity at 1.25 µM ([1]; Well no.=2981) was 98% and the remaining activity at 3.75 µM ([2]; Well no.=2981) was 98.1%.
`NC(N)=NCCC[C@H](NC(=O)c1sccc1NS(=O)(=O)c1cccc2nsnc12)C(=O)O` [EG00229] was tested, and the remaining activity at 1.25 µM ([1]; Well no.=8174) was 101% and the remaining activity at 3.75 µM ([2]; Well no.=8174) was 96.8%.
Work on `O=C(Nc1cccc(Nc2cc(Nc3cccc(C(F)(F)F)c3)ncn2)c1)C1CC1` [EGFR Inhibitor] yielded a remaining activity at 1.25 µM ([1]; Well no.=2403) of 106% and a remaining activity at 3.75 µM ([2]; Well no.=2403) of 103%.
In the case of `COc1cc2ncnc(Nc3ccc(OCc4ccccc4)cc3)c2cc1OC` [EGFR/ErbB-2 Inhibitor], the remaining activity at 1.25 µM ([1]; Well no.=2373) was 95.9% and the remaining activity at 3.75 µM ([2]; Well no.=2373) was 97.2%.
